Activity calls are given as the source filed them. For most assays here, no stated cut-off is given here; in the data, actives have a measured EC50 and inactives only a lower limit.
Test system: INS1
Test: INS-1E survival protection against cytokine death – cell-based, luminescence, retest, dose response (AID 449756);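 further: cell death triggered by IL-1 beta plus TNF-alpha plus IFN-gamma mixture; protective hits raise ATP signal compared with cytokine alone wells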
Format: functional
Settings: Rattus norvegicus, INS1

| Structure (SMILES) | AC50 |
| --- | --- |
| CC1=C(CC(=O)c2ccc(Cl)cc2)C(=O)c2ccccc2C1=O | 8.26 µM (active) |

Target: T1, Replicative DNA helicase DnaB (Mycobacterium tuberculosis, UniProt P9WMR3)
T1 sequence (P9WMR3 whole entry): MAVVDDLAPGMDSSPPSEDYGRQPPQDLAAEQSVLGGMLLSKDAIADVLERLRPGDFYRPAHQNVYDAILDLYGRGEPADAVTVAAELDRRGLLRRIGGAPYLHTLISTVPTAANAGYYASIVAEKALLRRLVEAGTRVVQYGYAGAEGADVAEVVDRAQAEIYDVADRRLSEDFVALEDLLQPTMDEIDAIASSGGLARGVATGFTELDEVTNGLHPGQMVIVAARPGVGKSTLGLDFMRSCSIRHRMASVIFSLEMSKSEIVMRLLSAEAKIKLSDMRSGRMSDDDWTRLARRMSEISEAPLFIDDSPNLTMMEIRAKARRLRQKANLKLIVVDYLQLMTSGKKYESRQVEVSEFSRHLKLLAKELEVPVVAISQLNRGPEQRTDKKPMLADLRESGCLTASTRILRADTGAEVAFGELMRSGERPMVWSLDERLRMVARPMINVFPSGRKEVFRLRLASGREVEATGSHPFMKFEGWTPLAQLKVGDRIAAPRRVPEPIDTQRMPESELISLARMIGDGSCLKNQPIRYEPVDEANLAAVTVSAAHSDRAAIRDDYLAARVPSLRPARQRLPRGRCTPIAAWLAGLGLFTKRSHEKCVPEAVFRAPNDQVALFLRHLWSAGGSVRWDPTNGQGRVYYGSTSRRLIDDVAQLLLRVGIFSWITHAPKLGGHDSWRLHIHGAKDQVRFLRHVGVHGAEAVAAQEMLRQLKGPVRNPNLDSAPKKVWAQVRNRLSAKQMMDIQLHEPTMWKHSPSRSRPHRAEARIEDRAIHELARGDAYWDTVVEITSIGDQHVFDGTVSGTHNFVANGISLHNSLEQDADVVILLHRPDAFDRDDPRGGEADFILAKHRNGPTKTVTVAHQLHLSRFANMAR
Test: DnaB intein splicing inhibitors, dose response, biochemical, cell-free fluorescence (AID 449749)
Format: functional
Settings: not given

| Structure (SMILES) | AC50 |
| --- | --- |
| CC(C)(C)c1[nH]nc2c1C(c1ccco1)C(C#N)=C(N)O2 (centres undefined) | 3.88 µM (active) |
| N#Cc1nc(N)nc(N(c2ccccc2)c2ccccc2)n1 | 39.8 µM (active) |
| CC1(C)CC(CCNC(=O)CCl)(c2ccccc2)CCO1 (centres undefined) | 179 µM (active) |
| Oc1c2c(nn1-c1ccccc1)CCSC2 | 12 µM (active) |
| COc1ccc(Br)cc1[C@H]1[C@@H]2C=CCC[C@@]2(C)C(=O)N1Cc1ccccc1 | > 380 µM (inactive) |
| CN1CCc2nc(SC(C(=O)O)c3ccccc3)c(C#N)c(-c3cccs3)c2C1 (centres undefined) | > 380 µM (inactive) |
| CC1=C(CC(=O)c2ccc(Cl)cc2)C(=O)c2ccccc2C1=O | 7.84 µM (active) |
| Cc1n[nH]c2c1C(c1ccsc1)C(C#N)=C(N)O2 (centres undefined) | 11 µM (active) |
| COc1cccc(-c2cc(O)[nH]n2)c1 | 2.51 µM (active) |
| CC1Nc2ncnc(N3CCc4ccccc4C3)c2N(Cc2ccc(Cl)cc2)C1=O (centres undefined) | > 380 µM (inactive) |

Test system: H4
Test: Luminescence Cell-Based Dose Response HTS to Identify Activators of 5'UTR Stem-Loop Driven Prion Protein mRNA Translation in H4 Neuroglioblastoma Cells. [Related pubchem assays: 1829 (Project Summary), 1814 (Primary HTS)]
Format: functional
Settings: Homo sapiens

| Structure (SMILES) | EC50 |
| --- | --- |
| Cc1ccccc1C1=NC(c2ccc(F)cc2F)ON1 (centres undefined) | 33.8 µM (active) |
| O=C(NNC(=S)Nc1ccccc1)c1cccs1 | 75.4 µM (active) |
| CCOC(=O)Nc1ccc2c(C)cc(=O)oc2c1 | 12.9 µM (active) |
| Cc1ccc(/C=N/N2CCN(Cc3ccccc3)CC2)s1 | > 120 µM (not active) |
| Cc1cccc(C(=O)NC2CCCCCCC2)c1 | > 120 µM (not active) |
| Cc1nc(OCc2ccccc2)c2sc3nc4c(cc3c2n1)COC(C)(C)C4 | > 120 µM (not active) |

Test system: Streptococcus sp. 'group A'
Test: Streptococcus pyogenes SK(-)GAS viability under kanamycin – luminescence, BacTiterGlo, confirmation, counter-screen for streptokinase expression inhibitor project, dose response (AID 1900)
Format: functional, organism-based
Settings: not given

| Structure (SMILES) | EC50 |
| --- | --- |
| COc1ccc(Br)cc1[C@H]1[C@@H]2C=CCC[C@@]2(C)C(=O)N1Cc1ccccc1 | 7.12 µM (active) |

Test system: not listed separately
Test: Luminescence Cell-Based Dose Response HTS to Identify Activators of Luciferase Translation or Activity in H4 […] Cells. [Related pubchem assays: 1829 (Project Summary), 1814 (Primary HTS)]
Format: functional
Settings: not given

| Structure (SMILES) | EC50 |
| --- | --- |
| Cc1ccccc1C1=NC(c2ccc(F)cc2F)ON1 (centres undefined) | 8.1 µM (active) |
| O=C(NNC(=S)Nc1ccccc1)c1cccs1 | 12.9 µM (active) |
| CCOC(=O)Nc1ccc2c(C)cc(=O)oc2c1 | 30.9 µM (active) |
| Cc1ccc(/C=N/N2CCN(Cc3ccccc3)CC2)s1 | 11.9 µM (active) |
| Cc1cccc(C(=O)NC2CCCCCCC2)c1 | 11.9 µM (active) |
| Cc1nc(OCc2ccccc2)c2sc3nc4c(cc3c2n1)COC(C)(C)C4 | 7.5 µM (active) |

Target: T2, Protein RecA (Mycobacterium tuberculosis, UniProt P9WHJ3)
T2 sequence (P9WHJ3 whole entry): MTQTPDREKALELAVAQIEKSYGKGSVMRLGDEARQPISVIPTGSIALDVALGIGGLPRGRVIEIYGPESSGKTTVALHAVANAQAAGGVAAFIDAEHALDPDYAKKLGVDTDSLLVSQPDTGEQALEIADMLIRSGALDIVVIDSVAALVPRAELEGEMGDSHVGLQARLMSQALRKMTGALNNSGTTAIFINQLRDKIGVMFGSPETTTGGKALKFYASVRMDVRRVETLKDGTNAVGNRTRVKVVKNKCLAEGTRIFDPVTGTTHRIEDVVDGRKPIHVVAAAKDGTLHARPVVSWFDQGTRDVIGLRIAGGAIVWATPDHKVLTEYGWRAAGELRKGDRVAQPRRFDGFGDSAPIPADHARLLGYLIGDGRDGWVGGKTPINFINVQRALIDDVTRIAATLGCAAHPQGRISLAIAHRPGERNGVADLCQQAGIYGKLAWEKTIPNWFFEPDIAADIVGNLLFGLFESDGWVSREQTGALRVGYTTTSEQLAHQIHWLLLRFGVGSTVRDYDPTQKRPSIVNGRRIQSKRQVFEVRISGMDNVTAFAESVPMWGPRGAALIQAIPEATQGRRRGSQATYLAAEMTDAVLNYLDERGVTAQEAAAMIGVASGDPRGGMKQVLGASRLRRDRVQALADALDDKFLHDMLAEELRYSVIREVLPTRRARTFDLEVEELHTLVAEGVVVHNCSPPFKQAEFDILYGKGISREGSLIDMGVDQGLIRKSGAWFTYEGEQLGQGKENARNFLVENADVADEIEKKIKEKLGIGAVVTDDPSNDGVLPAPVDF
Test: Fluorescence Cell-Free Homogeneous Dose Retest to Identify Inhibitors of RecA-Intein Splicing Activity. [Related pubchem assays (depositor defined):AID2097, AID2223, AID489010, AID492950]
Format: functional
Settings: not given

| Structure (SMILES) | EC50 |
| --- | --- |
| CC(C)(C)c1[nH]nc2c1C(c1ccco1)C(C#N)=C(N)O2 (centres undefined) | 1.21 µM (active) |
| N#Cc1nc(N)nc(N(c2ccccc2)c2ccccc2)n1 | 66.6 µM (active) |
| CC1(C)CC(CCNC(=O)CCl)(c2ccccc2)CCO1 (centres undefined) | 14.5 µM (active) |
| Oc1c2c(nn1-c1ccccc1)CCSC2 | 13.7 µM (active) |
| COc1ccc(Br)cc1[C@H]1[C@@H]2C=CCC[C@@]2(C)C(=O)N1Cc1ccccc1 | 26.7 µM (active) |
| CN1CCc2nc(SC(C(=O)O)c3ccccc3)c(C#N)c(-c3cccs3)c2C1 (centres undefined) | 12.3 µM (active) |
| CC1=C(CC(=O)c2ccc(Cl)cc2)C(=O)c2ccccc2C1=O | 1.24 µM (active) |
| Cc1n[nH]c2c1C(c1ccsc1)C(C#N)=C(N)O2 (centres undefined) | 4.1 µM (active) |
| COc1cccc(-c2cc(O)[nH]n2)c1 | 0.757 µM (active) |
| CC1Nc2ncnc(N3CCc4ccccc4C3)c2N(Cc2ccc(Cl)cc2)C1=O (centres undefined) | 30.9 µM (active) |

Test system: not listed separately
Test: Trypanosoma cruzi growth suppression in host cells – NIH3T3 host cells, beta-gal luminescence, confirmation (AID 2044);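 further: intracellular parasites grown in NIH/3T3 mouse fibroblasts as host cells; luminescent beta-galactosidase reporter signal from transgenic T. cruzi replicating inside host cells; inhibitors lower the luminescence signal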
Format: functional, cell-based
Settings: not given

| Structure (SMILES) | EC50 |
| --- | --- |
| CN1CCc2nc(SC(C(=O)O)c3ccccc3)c(C#N)c(-c3cccs3)c2C1 (centres undefined) | 1.2 µM (active) |

Test system: not listed separately
Test: Luminescence Cell-Based Dose Confirmation HTS to Identify Activators of 5'UTR Stem-Loop Driven Alpha-Synuclein mRNA Translation in H4 Neuroglioblastoma Cells. [Related pubchem assays: 1829 (Project Summary), 1814 (Primary HTS)]
Format: functional
Settings: not given

| Structure (SMILES) | EC50 |
| --- | --- |
| Cc1ccccc1C1=NC(c2ccc(F)cc2F)ON1 (centres undefined) | 33.6 µM (active) |
| O=C(NNC(=S)Nc1ccccc1)c1cccs1 | 11.2 µM (active) |
| CCOC(=O)Nc1ccc2c(C)cc(=O)oc2c1 | 13 µM (active) |
| Cc1ccc(/C=N/N2CCN(Cc3ccccc3)CC2)s1 | 21 µM (active) |
| Cc1cccc(C(=O)NC2CCCCCCC2)c1 | 29.8 µM (active) |
| Cc1nc(OCc2ccccc2)c2sc3nc4c(cc3c2n1)COC(C)(C)C4 | 9.71 µM (active) |

Target: T3, Streptokinase A (Streptococcus pyogenes serotype M1, UniProt P10520)
T3 sequence (P10520 whole entry): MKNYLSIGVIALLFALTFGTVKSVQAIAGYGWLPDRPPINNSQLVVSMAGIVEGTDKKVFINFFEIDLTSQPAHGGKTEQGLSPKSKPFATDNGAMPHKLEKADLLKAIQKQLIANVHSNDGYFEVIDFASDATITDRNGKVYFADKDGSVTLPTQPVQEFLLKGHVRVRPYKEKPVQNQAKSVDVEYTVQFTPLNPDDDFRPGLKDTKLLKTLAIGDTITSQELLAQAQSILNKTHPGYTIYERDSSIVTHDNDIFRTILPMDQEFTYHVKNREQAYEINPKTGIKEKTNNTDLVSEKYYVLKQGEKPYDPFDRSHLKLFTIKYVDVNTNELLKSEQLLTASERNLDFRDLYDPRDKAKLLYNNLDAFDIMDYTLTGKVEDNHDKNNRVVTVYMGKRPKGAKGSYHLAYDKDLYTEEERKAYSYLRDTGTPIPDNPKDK
Test: viability-normalized secreted streptokinase activity reduction – plasminogen activation absorbance, OD405, dose response (AID 1914);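 further: secreted streptokinase activity via plasminogen activation per viability signal from cell pellet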
Format: functional, Streptococcus pyogenes M1 GAS
Settings: not given

| Structure (SMILES) | EC50 |
| --- | --- |
| COc1ccc(Br)cc1[C@H]1[C@@H]2C=CCC[C@@]2(C)C(=O)N1Cc1ccccc1 | 37.6 µM (active) |

Test system: Streptococcus
Test: GAS UMAA2166 growth inhibition – luminescence, BacTiterGlo, counter-screen for streptokinase expression inhibitor project, dose response (AID 1915);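 further: potency for reduction of bacterial viability or growth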
Format: functional, organism-based
Settings: not given

| Structure (SMILES) | EC50 |
| --- | --- |
| COc1ccc(Br)cc1[C@H]1[C@@H]2C=CCC[C@@]2(C)C(=O)N1Cc1ccccc1 | 11.1 µM (active) |

Test system: not listed separately
Test: NIH3T3 cell viability loss – ATP luminescence, mouse fibroblasts, counter-screen, dose response (AID 2010);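 further: cells exposed to compound for about 90 hours before reading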
Format: functional, cell-based
Settings: not given

| Structure (SMILES) | EC50 |
| --- | --- |
| CN1CCc2nc(SC(C(=O)O)c3ccccc3)c(C#N)c(-c3cccs3)c2C1 (centres undefined) | > 30 µM (not active) |
